Source: US11376264B2, “Use of bromodomain-containing protein 9 antagonists in combination with vitamin D receptor agonists in diabetes treatment” (Salk Institute for Biological Studies, priority 2017, dated 2022)
Entries after “also recorded” stand apart in the source; their conditions may differ.

How the values were obtained:
VDR-PCAF interaction = assay: Immunoprecipitation of endogenous PCAF with HA-VDR in INS1 cells; format: cell-based, rat; conditions: INS1 cells expressing HA-VDR, 1 hr after treatment
Protocol: Immunoprecipitations were performed as described previously (He et al., 2010, Mol. Cell 38, 428-38). Briefly, cells are lysed using ice-cold lysis buffer (HEPES 20 mM pH8, EDTA 0.2 mM, NaCl 0.3 mM, NP40 0.5%, 15% glycerol) for 15 min, and after centrifuging the supernatant was collected. For HA- or Flag-tagged proteins, immunoprecipitations were performed using HA-magnetic beads (Pierce, P188836), or Flag-magnetic beads (Sigma, M8823) for 1.5 hr at 4° C. For other immunoprecipitations, primary antibodies were incubated with lysates for 2 hr followed by Protein A magnetic beads (Life Technologies, 10001D). After 3 washes with wash buffer (HEPES 10 mM pH8, EDTA 0.2 mM, NaCl 0.3 mM, NP40 0.1%, 15% glycerol), the beads were boiled with NuPage LDS sample buffer and the lysates were stored at −20° C.

[1] = system: VDR association with BAF/PBAF complex components; assay: VDR interactome (MudPIT, Western blot) in INS1 cells expressing HA-tagged VDR; format: cell-based, rat; conditions: for VDR interactions of key components of the PBAF complex (PBRM1, ARID2): INS1 cells expressing HA-tagged VDR; for VDR association of proteins common to the BAF and PBAF complexes: e.g. SMARCA1, SMARCA2, SMARCA4
Protocol: Immunoprecipitations were performed as described previously (He et al., 2010, Mol. Cell 38, 428-38). Briefly, cells are lysed using ice-cold lysis buffer (HEPES 20 mM pH8, EDTA 0.2 mM, NaCl 0.3 mM, NP40 0.5%, 15% glycerol) for 15 min, and after centrifuging the supernatant was collected. For HA- or Flag-tagged proteins, immunoprecipitations were performed using HA-magnetic beads (Pierce, P188836), or Flag-magnetic beads (Sigma, M8823) for 1.5 hr at 4° C. For other immunoprecipitations, primary antibodies were incubated with lysates for 2 hr followed by Protein A magnetic beads (Life Technologies, 10001D). After 3 washes with wash buffer (HEPES 10 mM pH8, EDTA 0.2 mM, NaCl 0.3 mM, NP40 0.1%, 15% glycerol), the beads were boiled with NuPage LDS sample buffer and the lysates were stored at -20° C. Samples were precipitated by methanol/chloroform. Dried pellets were dissolved in 8 M urea/100 mM TEAB, pH 8.5. […] Proteins were digested overnight at 37° C. in 2 M urea/100 mM TEAB, pH 8.5, with trypsin (Promega). Digestion was quenched with formic acid, 5% final concentration. The digested samples were analyzed on a Fusion Orbitrap tribrid mass spectrometer (Thermo). The digest was injected directly onto a 30 cm, 75 um ID column packed with BEH 1.7 um C18 resin (Waters). Samples were separated at a flow rate of 200 nl/min on a nLC 1000 (Thermo). […] Column was re-equilibrated with 20 ul of buffer A prior to the injection of sample. Peptides were eluted directly from the tip of the column and nanosprayed directly into the mass spectrometer by application of 2.5 kV voltage at the back of the column. The Orbitrap Fusion was operated in a data-dependent mode. Full MS1 scans were collected in the Orbitrap at […] resolution with a mass range of 400 to 1600 m/z and an AGC target of 5e5. The cycle time was set to 3 sec, and within this 3 sec the most abundant ions per scan were selected for CID MS/MS in the ion trap with an AGC target of 1e4 and minimum intensity of 5000. Maximum fill times were set to 50 ms and 100 ms for MS and MS/MS scans respectively. Quadrupole isolation at 1.6m/z was used, monoisotopic precursor selection was enabled and dynamic exclusion was used with exclusion duration of 5 sec. Protein and peptide identification were done with Integrated Proteomics Pipeline-IP2 (Integrated Proteomics Applications). Tandem mass spectra were extracted from raw files using RawConverter (ref1) and searched with ProLuCID (ref2) against rat UniProt database. The search space included all fully-tryptic and half-tryptic peptide candidates. Carbamidomethylation on cysteine was considered as a static modification. Acetylation (42.010565) was considered as a differential modification on Lysine and the N-terminus. […]

db/db (B6) mice = assay: db/db (B6) mouse T2D model treatment; format: in vivo; conditions: for fasted blood glucose levels: Cal 60 μg/kg, iBRD9 10 mg/kg i.p. 3 times a week, 9 weeks; for serum insulin levels: FIG. 10D, fasting / random fed
Protocol: The following mice strains were from Jackson: VDR KO (B6.129S4-Vdrtm1Mbd/J), B6 db (B6.BKS(D)-Leprdb/J), BKS db (BKS.Cg-Dock7m+/+ Leprdb/J), C57BL6/J. Animals were maintained in a specific pathogen-free animal facility on a 12-hr light-dark cycle at an ambient temperature of 23° C. Water and food were provided ad lib. All animal experiments used age-matched male mice. VDR KO and control littermate mice were maintained on a VDR KO rescue diet containing 21% calcium, 0.67% phosphorus, and 20% lactose supplemented with 4.4 U vitamin D per gram diet.
db/db (B6) mice were grouped based on glucose levels at the age of 5 weeks. Treatments were started from 6 weeks and animals were treated with vehicle (30% 2-Hydroxypropyl-β Cyclodextrin, Sigma, H-107) or drugs 3 times a week. […] For db/db (BKS) mice, treatment started from age of 10 weeks.
(§1) Intraperitoneal GTTs were performed on overnight fasted mice. Blood glucose values were assessed before and at 0, 15, 30, 60, and 120 min after i.p. administration of 0.5 g/kg of glucose. Serum insulin levels were assessed before and at 0, 15, and 60 min after the i.p. administration of glucose using a rat/mouse Insulin ELISA kit (Millipore). IP-ITT assays were performed on mice after a 6 hr fast with an injection of 2 U/kg of insulin (Humalin R, Eli Lilly).
ELISA were performed per manufacturer's instructions: mouse insulin (Millipore, EZRMI-13K), mouse proinsulin (Mercodia, NC9088881).

[2] = system: low-dose STZ-treated mice; assay: Low-dose STZ β cell damage mouse model; format: in vivo; conditions: for glucose control (overnight fasted glucose): i.p. 3 times a week; for serum insulin levels: mouse, in vivo
Protocol: 8 week old C57B16 male mice were injected intraperitoneally with streptozotocin (Sigma, S0130) at the dose of 50 mg/kg every day for 5 consecutive days.
For immunohistochemistry, FFPE tissues sections were deparaffinized and antigen retrieval performed using Vector Antigen Unmasking buffer (H3301). VectaStain ABC kit and ImmPACT DAB substrate (Vector Lab) were used to develop signal. Antibodies used: Pro-insulin (R&D, MAB13361, 1:100), insulin (Abcam, ab7842, 1:100), MAFA (Novus, NB400-137, 1:50), NKX6-1 (Cell Signaling, 54551, 1:100), and Glucagon (Abcam, ab82270, 1:100). DAPI-containing mounting media ([…] mounting medium for fluorescence) was used for nuclear staining. Immunostaining was visualized by ZEISS 780 confocal microscopy analysis.
as §1

Compound | PCAF binding to VDR (VDR-PCAF interaction) | VDR interactions of key components of the PBAF complex (PBRM1, ARID2) [1] | VDR association of proteins common to the BAF and PBAF complexes [1] | fasted blood glucose levels (db/db (B6) mice) | serum insulin levels (db/db (B6) mice) | glucose control (overnight fasted glucose) [2] | serum insulin levels [2] | cytokine and chemokine genes in islets (db/db (B6) mice; RNA-seq of islets) | key transcription factors (Nkx6-1, Nr4a1) in islets (db/db (B6) mice; RNA-seq of islets) | Cyp24A1 expression in islets and intestine (db/db (B6) mice; VDR target gene) | glucose tolerance (IPGTT) (db/db (B6) mice; after 9 weeks treatment) | Ins2 mRNA levels in islets (db/db (B6) mice; qPCR) | expression of gluconeogenesis genes (Pepck, Fbp1, G6pase) in liver (db/db (B6) mice; qPCR)
CCn1cc(-c2cccc(C(F)(F)F)c2)c2sc(C(=N)NC3CCS(=O)(=O)CC3)cc2c1=O [iBRD9] | increased | significantly increased | increased | modest improvements | higher fasting serum insulin levels | limited to no benefit | increased levels of insulin | – | – | – | – | – | –
C=C1/C(=C\C=C2/CCC[C@]3(C)[C@@H]([C@H](C)/C=C/[C@@H](O)C4CC4)CC[C@@H]23)C[C@@H](O)C[C@@H]1O [Cal, calcipotriol] | increased | significantly increased | increased | modest improvements; also recorded: mildly reduces | higher fasting serum insulin levels | limited to no benefit | increased levels of insulin | downregulated | upregulation | marked induction | improved glucose clearance; also recorded: better glucose tolerance | trended upwards; also recorded: increased expression of Ins2 | reduced expression; also recorded: repressed
